From EP0429987B1, “5,11-Dihydro-6H-dipyrido[3,2-b:2',3'-e] [1,4]diazepines and their use in the prevention or treatment of HIV infection” (priority 1989, dated 1991)

target: T1, HIV-1 RT (Human immunodeficiency virus type 1 group M subtype B, UniProt P03367); assay: Reverse Transcriptase (RT) Assay: inhibition of RNA-dependent DNA polymerase activity; format: biochemical; settings: @ 0.5µM
T1 construct: Reverse transcriptase enzyme from the LAV strain of Human Immunodeficiency Virus (HIV-1) (1) was isolated; made in house; host or cells: E. coli JM109, clone pBRTprtl+ in vector pIBI21 (lac promoter, IPTG induction)
Source text: Utilizing the Reverse Transcriptase (RT) Assay described below, compounds can be tested for their ability to inhibit the RNA-dependent DNA polymerase activity of HIV-1 RT.
Among the enzymes for which Human Immunodeficiency Virus (HIV-1) encodes is a reverse transcriptase (1), so-named because it transcribes a DNA copy from an RNA template. This activity can be quantitatively measured in a cell-free enzyme assay, which has been previously described (2), and is based upon the observation that reverse transcriptase is able to use a synthetic template [poly r(C) primed with oligo d(G)] to transcribe a radio-labelled, acid-precipitable DNA strand utilizing ^3H-dGTP as a substrate.
Reverse transcriptase enzyme from the LAV strain of Human Immunodeficiency Virus (HIV-1) (1) was isolated from the bacterial strain JM109 (3) expressing the DNA clone pBRTprtl+ (2) which is under the control of the lac promotor in the expression vector pIBI21 (4). An overnight culture grown in 2XYT medium (37°C, 225 rpm) (5) supplemented with 100 µg/ml ampicillin for positive selection is inoculated at a 1:40 dilution into M9 medium supplemented with 10µg/ml thiamine, 0.5% casamino acids, and 50 µg/ml ampicillin (5). The culture is incubated (37°C, 225 rpm) until it reaches an OD540 of 0.3-0.4. At that time the repressor inhibitor IPTG (isopropyl β-D-thiogalactopyranoside) is added to 0.5mM, and the mixture is incubated for 2 additional hours. Bacteria are pelleted, resuspended in a 50mM Tris, 0.6mM EDTA, 0.375M NaCl buffer and digested by the addition of lysozyme (1mg/ml) for 30 minutes on ice. The cells are lysed by the addition of 0.2% NP-40 and brought to 1M NaCl.
After removal of the insoluble debris by centrifugation, the protein is precipitated by the addition of 3 volumes of saturated aqueous ammonium sulfate. The enzyme is pelleted, resuspended in RT buffer (50mM Tris pH 7.5, 1mM EDTA, 5mM DTT, 0.1% NP-40, 0.1M NaCl, and 50% glycerol), and stored at -70°C for further use.
The 2X concentrated stock reaction mixture is aliquoted and stored at -20°C. […] This enzyme assay has been adapted to a 96 well microtiter plate system, and has been previously described (6). Tris buffer (50 mM, pH 7.4), vehicle (solvent diluted to match the compound dilution), or compounds in vehicle are dispensed into 96-well microtiter plates (10µl/well; 3 wells/ compound). The HIV-1 RT enzyme is thawed, diluted in 50mM Tris pH 7.4 so that fifteen µl of diluted enzyme contain 0.001 Unit (one unit is that amount of enzyme to transform 1 micromole of substrate per minute at 25°C), and fifteen µl are dispensed per well. Twenty µl of 0.12-0.5M EDTA are added to the first three wells of the microtiter plate. EDTA chelates the Mg^++ present and prevents reverse transcription. This group serves as background polymerization which is subtracted from all other groups. Twenty-five µl of the 2X reaction mixture are added to all wells and the assay is allowed to incubate at room temperature for 60 minutes. The assay is terminated by precipitating the DNA in each well with 50µl of 10% trichloracetic acid (TCA) (10% w/v) in sodium pyrophosphate (1% w/v). The microtiter plate is incubated for 15 minutes at 4°C and the precipitate is fixed onto #30 glass fiber paper (Schleicher & Schuell) using a Skatron semi-automatic harvester. The filters are then washed with additional TCA (5%) containing sodium pyrophosphate (1%), rinsed with aqueous ethanol (70%), dried, and transferred to scintillation vials (6). Each vial receives 2 mls of scintillation cocktail and is counted in a Beckman beta counter.
The calculation for percent inhibition is as follows: %inhibition =(CPM Mean Test Value - CPM Mean Control Value X100)/(CPM Mean Control Value) [formula]

Row | inhibition at 0.5 µM | SMILES
1 | 30% | CC(=O)N1C(=O)c2cccnc2N(C2CC2)c2nccc(C)c21 [Example 54]

same assay, conditions: @ 1µM (footnote *); read-out: RT Assay % inhibition

Row | inhibition at 1 µM | SMILES
2 | 64% | CCN1c2ncccc2C(=O)N(C)c2ccc(N(C)Cc3ccc(OC)cc3)nc21 [Example 36]
3 | 70% | C=CCNc1ccc2c(n1)N(CC)c1ncccc1C(=O)N2C [Example 37]
4 | 34% | O=C1Nc2c(CO)ccnc2N(C2CC2)c2ncccc21 [Example 38]
5 | 32% | Cc1ccnc2c1NC(=O)c1c(O)ccnc1N2C1CC1 [Example 41]
6 | 90% | CN1C(=O)c2cccnc2N(C2CCCCC2)c2ncccc21 [Example 44]
7 | 35% | O=C1Nc2cccnc2N(C2CCCCC2)c2ncccc21 [Example 45]
8 | 52% | CCN1c2ncccc2C(=O)N(C)c2cc(Cl)c(N)nc21 [Example 49]
9 | 44% | C=CCN1C(=O)c2cccnc2N(C2CC2)c2nccc(C)c21 [Example 50]
10 | 20% | CCN1c2ncc(N)cc2C(=O)N(C)c2cc(N)cnc21 [Example 51]
11 | 72% | C=COC(=O)N1C(=O)c2cccnc2N(C2CC2)c2nccc(C)c21 [Example 52]
12 | 17% | CON1C(=O)c2cccnc2N(C2CC2)c2nccc(C)c21 [Example 53]
13 | 61% | CCN1c2ncccc2C(=O)N(C)c2ccc(NCc3ccc(OC)cc3)nc21 [Example 55]
14 | 68% | CCN1c2ncccc2C(=O)N(C)c2ccc(N3CCOCC3)nc21 [Example 56]
15 | 66% | CCN1c2ncccc2C(=O)N(C)c2ccc(N3CCCCC3)nc21 [Example 57]
16 | 8% | CN(C)CCN1C(=O)c2cccnc2N(C2CC2)c2ncccc21 [Example 59]
17 | 90% | CCN1c2ncccc2C(=O)N(C)c2ccc(N(C)C)nc21 [Example 60]
18 | 75% | CCNc1ccc2c(n1)N(CC)c1ncccc1C(=O)N2C [Example 61]
19 | 0% | CCN1c2ncc([N+](=O)[O-])cc2C(=O)N(C)c2cccnc21 [Example 62]
20 | 98% | CCN1c2nc(N(C)C)ccc2NC(=O)c2cccnc21 [Example 63]
21 | 94% | CCN1c2ncccc2C(=O)Nc2c1nc(N1CCCC1)c(Cl)c2C [Example 64]
22 | 82% | CCN1c2ncc(N)cc2C(=O)N(C)c2cccnc21 [Example 65, 8-Amino-5,11-dihydro-11-ethyl-5-methyl-6H-dipyrido[3,2-b:2',3'-e] [1,4]diazepin-6-one hemihydrate]

Second part, the molecule before the results:

Row | SMILES | inhibition at 1 µM
23 | Cc1ccnc2c1N(O)C(=O)c1cccnc1N2C1CC1 [Example 4, 11-Cyclopropyl-5,11-dihydro-5-hydroxy-4-methyl-6H-dipyrido[3,2-b:2',3'-e][1,4]diazepin-6-one] | 36%
24 | CCN1c2ncccc2C(=O)N(C)c2cc(Cl)c([N+](=O)[O-])nc21 [Example 8] | 40%
25 | CCc1ccnc2c1NC(=O)c1cccnc1N2C1CCC1 [Example 9] | 75%
26 | CCc1ccnc2c1NC(=O)c1cccnc1N2C1CC1 [Example 11] | 76%
27 | CCN1c2ncccc2C(=O)Nc2c(C)cc(Cl)nc21 [Example 12] | 91%
28 | Cc1cc(Cl)nc2c1NC(=O)c1cccnc1N2C1CC1 [Example 13] | 90%
29 | CCN1c2ncc(N=[N+]=[N-])cc2C(=O)N(C)c2cccnc21 [Example 16] | 63%
30 | Cc1ccnc2c1N(C)C(=O)c1cccnc1N2C1CC1 [Example 19] | 50%
31 | O=C1Nc2cccnc2N(C2CCCC2)c2ncccc21 [Example 24] | 35%
32 | CCN1c2ncccc2C(=O)N(C)c2c(C)cc(N3CCCC3)nc21 [Example 25] | 94%
33 | CCN1c2ncccc2C(=O)N(C)c2ccc(N3CC=CC3)nc21 [Example 26] | 86%
34 | CCN1c2ncccc2NC(=O)c2c(C)cc(C)nc21 [Example 27] | 2%
35 | CN1C(=O)c2cccnc2N(C2CCCC2)c2ncccc21 [Example 28] | 34%
36 | O=C1Nc2c(Cl)ccnc2N(C2CC2)c2ncccc21 [Example 33] | 83%

same assay, conditions: @ 1.25µM (footnote +)

Row | inhibition at 1.25 µM | SMILES
37 | 37% | N#Cc1ccnc2c1NC(=O)c1cccnc1N2C1CC1 [Example 58]

same assay, conditions: read-out: RT Assay % inhibition

Row | SMILES | inhibition at 1 µM
38 | Cc1cc(C)c2c(n1)N(C1CC1)c1ncccc1C(=O)N2 [Example 10] | 85%
39 | CCN1c2ncc([N+](=O)[O-])cc2C(=O)N(C)c2cc([N+](=O)[O-])cnc21 [Example 39] | 0%
40 | CCN1c2ncc([N+](=O)[O-])cc2C(=O)N(C)c2cc(Cl)c([N+](=O)[O-])nc21 [Example 40] | 0%
41 | Cc1ccnc2c1NC(=S)c1cccnc1N2C1CC1 [Example 42, 5,11 Dihydro-6H-11-cyclopropyl-4-methyl-dipyrido[3,2-b:2',3'-e][1,4]diazepin-6-thione] | 90%
42 | CCN1c2ncccc2C(=NOC)Nc2c(C)cc(C)nc21 [Example 67, 5,11-Dihydro-11-ethyl-6-methoxyimino-2,4-dimethyl-6H-dipyrido[3,2-b:2',3'-e][1,4]diazepine] | 88%

same assay, conditions: read-out: RT Assay % inhibition @ 10 µg/ml

Row | inhibition at 10 µg/mL | SMILES
43 | 44% | CN1C(=O)c2cccnc2N(C#N)c2ncccc21 [Example 43]
44 | 44% | CCN1c2ncccc2NC(=O)c2c1nc(C)c(Cl)c2C [Example 46]
45 | 77% | CN1C(=O)c2cccnc2N(S(C)(=O)=O)c2ncccc21 [Example 48]

Continued, molecule first:

Row | SMILES | inhibition at 10 µg/mL
46 | CCN1c2ncccc2C(=O)Nc2c(C(F)(F)F)cc(C)nc21 [Example 1, 5,11-Dihydro-11-ethyl-2-methyl-4-trifluoromethyl-6H-dipyrido-[3,2-b:2',3'-e][1,4]diazepin-6-one] | 100%
47 | CN1C(=O)c2cccnc2N(C(C)(C)C)c2ncccc21 [Example 15] | 87%
48 | CC(C)N1c2ncccc2NC(=O)c2cccnc21 [Example 17] | 99%
49 | O=C1Nc2cccnc2N(C2CC2)c2ncccc21 [Example 18] | 99%
50 | CN1C(=O)c2cccnc2N(CC2CC2)c2ncccc21 [Example 20] | 93%
51 | CC[C@@H](C)N1c2ncccc2NC(=O)c2cccnc21 [Example 21] | 85%
52 | CCN1c2ncccc2C(=O)N(C)c2cc(C)c(C)nc21 [Example 22] | 100%
53 | CC[C@H](C)N1c2ncccc2NC(=O)c2cccnc21 [Example 23] | 88%
54 | COCN1C(=O)c2cccnc2N(COC)c2nccc(C)c21 [Example 29] | 0%
55 | CCN1c2ncccc2C(=O)Nc2c(C(F)(F)F)cc(Cl)nc21 [Example 30] | 100%
56 | O=C1Nc2cccnc2N(C2CCC2)c2ncccc21 [Example 31] | 99%
57 | CN1C(=O)c2cccnc2N(C2CCC2)c2ncccc21 [Example 32] | 100%
58 | COc1ccnc2c1NC(=O)c1cccnc1N2C1CC1 [Example 35] | 91%
59 | CCN1c2ncccc2C(=NC#N)Nc2c(C)cc(C)nc21 [Example 66, 6-Cyanoimino-5,11-dihydro-11-ethyl-2,4-dimethyl-6H-dipyrido[3,2-b:2',3'-e][1,4]diazepine] | 100%
